{
  "source": "patent US5830994A",
  "about": "“Peptide derivatives of alpha-MSH and their application” (Institut Europeen De Biologie Cellulaire, priority 1993, dated 1998)",
  "key": {"TNF-α": {"system": "TNF-α", "test": "Inhibition of TNF-α induced by LPS in mice (DAYNES technique), serum ELISA", "type": "in vivo", "protocol": "This anti-inflammatory activity was complemented by a study of the immunosuppressive activity of PIV against Tumor Necrosis Factor-α.\nInhibition of the activity of TNF-α by the Peptide PIV\nThe DAYNES techniques described in Example 8 are used.\n40 μg of PIV in 0.2 ml of physiological saline--that is to say 200 μg/ml\n25 μg of PIV in 0.2 ml of physiological saline--that is to say 125 μg/ml\n10 μg of PIV in 0.2 ml of physiological saline--that is to say 50 μg/ml\nIt was carried out on mice separated into 5 batches of 5 animals\nThe animals in the control batches receive an injection of 0.2 ml of physiological saline intravenously. The animals in the PIV batches receive an injection of the product at various dosages intravenously. (Caudal vein)\nImmediately after the treatment of the mice, a sublethal dose of LPS (1.2 mg in 0.2 ml of physiological saline) is intraperitoneally injected into each animal in the batches and positive control.\nNinety minutes later, all the mice are punctured through the retroorbital sinuses on dry tubes. As soon as the blood coagulates, the clot is detached. The blood is centrifuged for 10 minutes at 10° C. at 1800 g.\nThe sera once collected are frozen at -25° C.\nThe TNF-α contained in these sera is assayed 24 hours after the sampling with the murine TNF-α ELISA assay Kit (ref. 1509-00 GENZYME)\nRapid description of the Kit: the method used for this assay is of the sandwich type.\nA first anti-murine TNF-A monoclonal antibody is used.\nThe samples are then deposited and then a second anti-TNF-α goat antibody is caused to react.\nThe colored reaction uses o-phenylenediamine (OPD).\nThe reading is made at 492 nm with a plate reader (TITERTEK MKII MCC 340)"}, "[1]": {"system": "DNFB contact hypersensitivity", "test": "Dinitrofluorobenzene (DNFB) contact hypersensitivity test, ear thickening after topical application", "type": "in vivo, C57 BL/6JICO mice", "conditions": "for % suppression relative to the control batch, LEFT EAR / % suppression relative to the control batch, RIGHT EAR / MEAN VALUES LEFT EAR % INCREASE / MEAN VALUES RIGHT EAR % INCREASE: 5 days", "from_the_text": "Study of the Anti-allergic activity of the Peptide compounds, by the Dinitrofluorobenzene (DNFB) contact Hypersensitivity test.\nFemale C57 BL/6JICO mice 5 weeks old are separated into ten batches of ten animals (five per cage), with free access to water and food, subjected to a photoperiod of twelve hours of light per twenty-four hours.\nThe animals in batches 1 to 6 receive daily and per topical application on the shaved skin of the back, the products to be studied, dissolved in propylene glycol, in a constant volume of 50 μl and for five consecutive days.\nPIII--Batches 1 - 2 - 3--2.5 μg --0.5 μg--0.1 μg--mouse/day\nPIV--Batches 4 - 5 - 6 - 2.5μg--0.5 μg--0.1 μg--mouse/day\nThe animals of the X batch serve as controls (and receive only, 50 μl of propylene glycol per topical application for five days).\n(§1) On the fifth day, thirty minutes after the last application, all the mice are sensitized with 25 μl of DNFB (2.4-Dinitro-1-FluoroBenzene (FLUKA CHEMIKA PURUM at 97% batch No. 33820890) at 2% in a 4 to 1 mixture of acetone (SDS ref. 0510) and triolein (FLUKA) applied topically over the dorsal region of shaved skin.\nOn the sixth day, a new sensitization is carried out by application of DNFB.\nOn the eleventh day, the thickness of the ears of the mice is measured with the aid of a micrometer (ROCH 0 to 25 mm in 1/100 mm) in order to obtain base values, then the ears are stimulated by topical application of 20 μl of DNFB at 0.8%.\n(§2) On the twelfth day, the thickness of the ears is again measured. The mean value of thickening of the ears is established for the mice in the batches which had received the products to be studied, as well as for the mice in the control batch.\nThe percentage of suppression where appropriate will be expressed by the following calculation: [formula]\nComparative study of the activity of Lipoyl-Peptides and of their peptide structures on DNFB contact hypersensitivity.\nThe method used is that described above in Example 10.\nContact hypersensitivity induced in mice by Dinitrofluorobenzene--\"DNBF\"\nBatch I: (DL) - Lip - Glu - His - D.homoPhe - Arg - Trp - Gly - NH2\nBatch II: H - Glu - His - D.homoPhe - Arg - Trp - Gly - NH2\nBatch III: Control=(DL) - Lipoic Acid\nSolvent: propylene Glycol previously used as control in Example 10.\nControl: dose used\"DL-Lipoic-Acid\"=10 ng per mouse and per day.\nas §1, with “were” for “are”, “05510)” for “0510)”\nas §2, with “batch. The percentage of suppression where appropriate will be expressed by the following calculation: [formula]” for “batch.”"}, "cultured embryonic cells": {"system": "cultured embryonic cells", "test": "Effects of Peptides PI and PIV on cultured embryonic cells in vitro (melanocytes, neurons, muscular cells, fibroblasts)", "type": "cell-based", "protocol": "Effects of Peptides PI and PIV on cultured embryonic cells in vitro . . . \"Melanocytes - Neurons - Muscular Cells and Fibroblasts . . . \" dose used 1 μg/ml (defined by dose/response trials)\n1 single treatment during the innoculation of the cells or several successive treatments (renewal of the medium every 48 hours) duration of culture: 6 to 8 days\n1) Counting of the melanocytes\n2) Assay of melanin by HPLC and/or by spectrophotometry\nDaily observation of the cultures\nUltrastructure by transmission electron microscopy."}},
  "data": [
    {"substance": "[(DL) Lip] His - D.homoPhe - Arg - Trp - NH2 [PIV]", "values": [
      {"measurement": "mean decreases in TNF-α", "setting": "TNF-α; 50 μg/ml, five studies", "result": 37, "unit": "%"},
      {"measurement": "mean decreases in TNF-α", "setting": "TNF-α; 125 μg/ml, five studies", "result": 40, "unit": "%"},
      {"measurement": "mean decreases in TNF-α", "setting": "TNF-α; 200 μg/ml, five studies", "result": 46, "unit": "%"},
      {"measurement": "mean decreases in TNF-α", "setting": "TNF-α; all dosages, all the five studies", "result": "~40", "unit": "%"},
      {"measurement": "immunosuppressive activity against Tumor Necrosis Factor-α", "setting": "TNF-α; complementary study reported in Example 8", "result": -40, "unit": "%"},
      {"measurement": "% suppression relative to the control batch, LEFT EAR", "setting": "[1]; 0.1 μg/mouse/day topical", "result": -65.46, "unit": "%"},
      {"measurement": "% suppression relative to the control batch, RIGHT EAR", "setting": "[1]; 0.1 μg/mouse/day topical", "result": -65.46, "unit": "%"},
      {"measurement": "MEAN VALUES LEFT EAR % INCREASE", "setting": "[1]; 0.1 μg/mouse/day topical", "result": 20.35, "unit": "%"},
      {"measurement": "MEAN VALUES RIGHT EAR % INCREASE", "setting": "[1]; 0.1 μg/mouse/day topical", "result": 20.35, "unit": "%"},
      {"measurement": "% suppression relative to the control batch, LEFT EAR", "setting": "[1]; 0.5 μg/mouse/day topical", "result": -69.40, "unit": "%"},
      {"measurement": "% suppression relative to the control batch, RIGHT EAR", "setting": "[1]; 0.5 μg/mouse/day topical", "result": -69.40, "unit": "%"},
      {"measurement": "MEAN VALUES LEFT EAR % INCREASE", "setting": "[1]; 0.5 μg/mouse/day topical", "result": 18.03, "unit": "%"},
      {"measurement": "MEAN VALUES RIGHT EAR % INCREASE", "setting": "[1]; 0.5 μg/mouse/day topical", "result": 18.03, "unit": "%"},
      {"measurement": "% suppression relative to the control batch, LEFT EAR", "setting": "[1]; 2.5 μg/mouse/day topical", "result": -69.47, "unit": "%"},
      {"measurement": "% suppression relative to the control batch, RIGHT EAR", "setting": "[1]; 2.5 μg/mouse/day topical", "result": -69.47, "unit": "%"},
      {"measurement": "MEAN VALUES LEFT EAR % INCREASE", "setting": "[1]; 2.5 μg/mouse/day topical", "result": 17.99, "unit": "%"},
      {"measurement": "MEAN VALUES RIGHT EAR % INCREASE", "setting": "[1]; 2.5 μg/mouse/day topical", "result": 17.99, "unit": "%"},
      {"measurement": "suppression of the cutaneous hypersensitivity reaction induced by DiNitroFluoroBenzene", "setting": "[1]; overall, Example 10 (2.5, 0.5, 0.1 μg/mouse/day)", "result": 68.11, "unit": "%"},
      {"measurement": "effect on precursor embryonic cells not yet determined in the melanoblastic pathway (in words)", "setting": "cultured embryonic cells; 1 μg/ml", "result": "no effect"},
      {"measurement": "effect on the melanoblasts already induced (in words)", "setting": "cultured embryonic cells; 1 μg/ml", "result": "stimulating effect"},
      {"measurement": "number of melanocytes increases by a factor", "setting": "cultured embryonic cells; 1 μg/ml", "result": "≥ 2"},
      {"measurement": "toxic effect on astroglial cells (in words)", "setting": "cultured embryonic cells; 1 μg/ml", "result": "No toxic effect"},
      {"measurement": "toxic effect on fibroblasts, mesenchyme (in words)", "setting": "cultured embryonic cells; 1 μg/ml", "result": "no toxic effect"},
      {"measurement": "quantity of biosynthesized melanin per cell", "setting": "cultured embryonic cells; 1 μg/ml, after eight days of culture", "result": 1.4, "unit": "ng/cell"},
      {"measurement": "toxic effect on myoblasts (in words)", "setting": "cultured embryonic cells; 1 μg/ml, even at an ultrastructural level", "result": "no toxic effect"},
      {"measurement": "effect on melanogenesis, summary (in words)", "setting": "cultured embryonic cells; qualitative and quantitative", "result": "stimulate melanogenesis"},
      {"measurement": "cytotoxic effect on the various cell categories (in words)", "setting": "cultured embryonic cells; summary", "result": "no cytotoxic effect"},
      {"measurement": "stimulating effect on the other cell types: neurons, astrocytes, muscle cells, fibroblasts (in words)", "setting": "cultured embryonic cells; summary", "result": "without stimulating effect"}
    ]}
  ]
}
